In the NIST ThermoML archive (doi:10.1021/je3010535):
“And” between values parts separate entries of the source, which are not always exact repeats. Identical values can stand only once. ± gives the expanded uncertainty stated by the source.

How the values were obtained:
[1] = Henry's Law constant (molality scale); of the first substance listed, at infinite dilution; mn = molality of the nth substance listed, in mol/kg; conditions: Liquid, Chromatography, m1 = 0
[2] = Henry's Law constant (molality scale); of the first substance listed, at infinite dilution; xn = mol fraction of the nth substance listed; conditions: Liquid, Chromatography, x1 = 0

SMILES | Henry's Law constant ([1]; 274.15 K) | Henry's Law constant ([1]; 294.65 K) | Henry's Law constant ([1]; 296.15 K) | Henry's Law constant ([1]; 310.15 K) | Henry's Law constant ([1]; 313.15 K) | Henry's Law constant ([1]; 326.15 K) | Henry's Law constant ([1]; 331.15 K) | Henry's Law constant ([1]; 320.15 K) | Henry's Law constant ([2]; 274.15 K) | Henry's Law constant ([2]; 296.15 K) | Henry's Law constant ([2]; 310.15 K) | Henry's Law constant ([2]; 313.15 K) | Henry's Law constant ([2]; 326.15 K) | Henry's Law constant ([2]; 331.15 K)
Cc1ccc(C)c(C)c1 [1,2,4-trimethylbenzene] + O | 82.9 ± 33 kPa·kg/mol | 235 kPa·kg/mol and 255 kPa·kg/mol | 292 ± 120 kPa·kg/mol | 497 ± 200 kPa·kg/mol | 974 ± 390 kPa·kg/mol | 1770 ± 710 kPa·kg/mol | 1390 ± 550 kPa·kg/mol | – | – | – | – | – | – | –
Clc1ccccc1 [chlorobenzene] + O | 83.7 ± 25 kPa·kg/mol | 246 kPa·kg/mol and 238 kPa·kg/mol | 270 ± 81 kPa·kg/mol | 423 ± 130 kPa·kg/mol | 532 ± 160 kPa·kg/mol | 1050 ± 310 kPa·kg/mol | 1180 ± 350 kPa·kg/mol | – | – | – | – | – | – | –
CC1CCCCC1 [methylcyclohexane] + O | 1060 ± 320 kPa·kg/mol | 2350 kPa·kg/mol and 2300 kPa·kg/mol | 2010 ± 600 kPa·kg/mol | – | 9440 ± 2800 kPa·kg/mol | 15600 ± 4700 kPa·kg/mol | – | – | – | – | – | – | – | –
Cc1ccccc1 [toluene] + O | 164 ± 49 kPa·kg/mol | 459 kPa·kg/mol and 470 kPa·kg/mol | 489 ± 150 kPa·kg/mol | 316 ± 95 kPa·kg/mol | 982 ± 290 kPa·kg/mol | 1840 ± 550 kPa·kg/mol | 3030 ± 910 kPa·kg/mol | – | – | – | – | – | – | –
C=Cc1ccccc1 [styrene] + O | 62.4 ± 19 kPa·kg/mol | 196 kPa·kg/mol | 224 ± 67 kPa·kg/mol | 382 ± 110 kPa·kg/mol | 507 ± 150 kPa·kg/mol | 925 ± 280 kPa·kg/mol | 972 ± 290 kPa·kg/mol | – | – | – | – | – | – | –
CCc1ccccc1 [ethylbenzene] + O | 162 kPa·kg/mol | – | 533 kPa·kg/mol | – | 1290 kPa·kg/mol | 2320 kPa·kg/mol | 1830 kPa·kg/mol | – | – | – | – | – | – | –
ClCCCCl [1,3-dichloropropane] + O | 18.8 ± 5.6 kPa·kg/mol | 65 kPa·kg/mol and 65.9 kPa·kg/mol | 70.6 ± 21 kPa·kg/mol | 156 ± 47 kPa·kg/mol | – | – | 421 ± 130 kPa·kg/mol | 287 ± 86 kPa·kg/mol | – | – | – | – | – | –
Cc1cccc(C)c1 [1,3-dimethylbenzene] + O | 147 ± 59 kPa·kg/mol | 381 kPa·kg/mol and 439 kPa·kg/mol | 457 ± 180 kPa·kg/mol | – | 1170 ± 470 kPa·kg/mol | 2090 ± 840 kPa·kg/mol | 1810 ± 730 kPa·kg/mol | – | – | – | – | – | – | –
Clc1cccc(Cl)c1 [1,3-dichlorobenzene] + O | 50.3 ± 20 kPa·kg/mol | 160 kPa·kg/mol and 164 kPa·kg/mol | 185 ± 74 kPa·kg/mol | 309 ± 120 kPa·kg/mol | 552 ± 220 kPa·kg/mol | 967 ± 390 kPa·kg/mol | 768 ± 310 kPa·kg/mol | 519 ± 210 kPa·kg/mol | – | – | – | – | – | –
Cl/C=C\CCl [(Z)-1,3-dichloro-1-propene] + O | 25.3 ± 7.6 kPa·kg/mol | 87.5 kPa·kg/mol and 89.1 kPa·kg/mol | 94.4 ± 28 kPa·kg/mol | 202 ± 61 kPa·kg/mol | – | – | 657 ± 200 kPa·kg/mol | 386 ± 120 kPa·kg/mol | – | – | – | – | – | –
Cc1ccc(C)cc1 [1,4-dimethylbenzene] + O | 147 ± 59 kPa·kg/mol | 381 kPa·kg/mol and 439 kPa·kg/mol | 457 ± 180 kPa·kg/mol | – | 1170 ± 470 kPa·kg/mol | 2090 ± 840 kPa·kg/mol | 1810 ± 730 kPa·kg/mol | – | – | – | – | – | – | –
Clc1ccc(Cl)c(Cl)c1 [1,2,4-trichlorobenzene] + O | 26.9 ± 11 kPa·kg/mol | 75.2 kPa·kg/mol and 81.4 kPa·kg/mol | 83.2 ± 33 kPa·kg/mol | 148 ± 59 kPa·kg/mol | – | 730 ± 290 kPa·kg/mol | 425 ± 170 kPa·kg/mol | 260 ± 100 kPa·kg/mol | – | – | – | – | – | –
CC(C)c1ccccc1 [isopropylbenzene] + O | 212 ± 64 kPa·kg/mol | 536 kPa·kg/mol and 588 kPa·kg/mol | 622 ± 190 kPa·kg/mol | 1380 ± 410 kPa·kg/mol | 1960 ± 590 kPa·kg/mol | 3260 ± 980 kPa·kg/mol | 3130 ± 940 kPa·kg/mol | – | – | – | – | – | – | –
BrCCBr [1,2-dibromoethane] + O | 12.7 ± 3.8 kPa·kg/mol | 54.1 kPa·kg/mol and 41.2 kPa·kg/mol | 57.8 ± 17 kPa·kg/mol | 130 ± 39 kPa·kg/mol | – | – | 333 ± 100 kPa·kg/mol | 218 ± 66 kPa·kg/mol | – | – | – | – | – | –
Cc1ccccc1C [1,2-dimethylbenzene] + O | 96.1 ± 29 kPa·kg/mol | 281 kPa·kg/mol and 291 kPa·kg/mol | 318 ± 95 kPa·kg/mol | 321 ± 96 kPa·kg/mol | 781 ± 230 kPa·kg/mol | 1400 ± 420 kPa·kg/mol | 1360 ± 410 kPa·kg/mol | – | – | – | – | – | – | –
ClC(Br)Br [chlorodibromomethane] + O | 22.7 ± 6.8 kPa·kg/mol | 80.5 kPa·kg/mol and 82.2 kPa·kg/mol | 85.7 ± 26 kPa·kg/mol | 179 ± 54 kPa·kg/mol | – | – | 536 ± 160 kPa·kg/mol | 327 ± 98 kPa·kg/mol | – | – | – | – | – | –
Cc1ccc(Cl)cc1 [4-chlorotoluene] + O | – | – | – | – | – | – | – | – | 85.6 kPa·kg/mol | 232 kPa·kg/mol | 224 kPa·kg/mol | 591 kPa·kg/mol | 1240 kPa·kg/mol | 888 kPa·kg/mol
